{
  "source": "paper PMC9671377",
  "about": "“Label-free affinity screening, design and synthesis of inhibitors targeting the Mycobacterium tuberculosis L-alanine dehydrogenase” (PLOS ONE, 2022)",
  "key": {"[1]": {"target": "T1, Mtb L-alanine dehydrogenase (AlaDH, Rv2780) (Mycobacterium tuberculosis, UniProt P9WQB1)", "T1 sequence (P9WQB1 whole entry, looked up)": "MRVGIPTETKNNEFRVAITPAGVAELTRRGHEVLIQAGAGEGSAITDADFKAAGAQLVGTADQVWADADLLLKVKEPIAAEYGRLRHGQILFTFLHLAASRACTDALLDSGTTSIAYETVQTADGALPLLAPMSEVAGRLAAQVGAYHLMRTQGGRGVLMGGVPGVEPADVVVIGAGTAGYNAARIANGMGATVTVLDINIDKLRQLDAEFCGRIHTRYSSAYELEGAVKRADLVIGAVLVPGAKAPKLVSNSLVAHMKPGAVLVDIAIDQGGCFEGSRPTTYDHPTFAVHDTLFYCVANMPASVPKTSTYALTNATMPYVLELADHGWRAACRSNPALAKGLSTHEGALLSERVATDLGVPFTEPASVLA", "type": "binding", "settings": "for Eluted protein amount relative to N6-methyl ado / Integrated band volume / Ratio against N6-methyl ado / Eluted AlaDH compared to N6-methyl ado: SDS gel densitometry; for Integrated band volume / Ratio against N6-methyl ado: Fig 3a"}, "[2]": {"target": "Mycobacterium tuberculosis L-alanine dehydrogenase (Mycobacterium tuberculosis, UniProt P9WQB1)", "sequence (P9WQB1 whole entry, looked up)": "as above", "experiment": "biochemical", "type": "biochemical", "settings": "for Ki: competitive inhibition mode vs NAD, value (S.D.) in table"}, "[3]": {"target": "Mtb L-alanine dehydrogenase (AlaDH) (Mycobacterium tuberculosis, UniProt P9WQB1)", "sequence (P9WQB1 whole entry, looked up)": "as above", "type": "biochemical"}, "[4]": {"target": "T1, Mtb L-alanine dehydrogenase (AlaDH, Rv2780)", "settings": "cited from earlier work"}, "[5]": {"test_system": "Mtb aldehyde dehydrogenase (Rv0223c, AldDH)", "type": "biochemical, Mycobacterium tuberculosis", "settings": "1 mM inhibitor, 1 mM NAD, 10 mM propionaldehyde"}, "human malate DH 2": {"target": "T2, human malate DH 2 (Homo sapiens, UniProt P40926)", "T2 sequence (P40926 25-338)": "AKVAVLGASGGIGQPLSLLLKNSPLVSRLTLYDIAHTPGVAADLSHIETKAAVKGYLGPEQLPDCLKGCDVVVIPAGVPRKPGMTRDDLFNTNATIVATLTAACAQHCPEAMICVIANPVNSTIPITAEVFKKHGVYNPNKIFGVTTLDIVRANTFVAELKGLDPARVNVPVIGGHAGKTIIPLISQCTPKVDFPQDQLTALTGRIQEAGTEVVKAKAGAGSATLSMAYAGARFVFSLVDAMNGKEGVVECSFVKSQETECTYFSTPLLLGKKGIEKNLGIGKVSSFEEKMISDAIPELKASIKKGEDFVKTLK", "experiment": "Activity assay against human malate DH 2", "type": "biochemical"}, "[6]": {"test_system": "Mtb in murine primary bone marrow-derived macrophages (BMDMs)", "type": "cell-based, Mycobacterium tuberculosis H37Rv", "settings": "500 μM, 3 days"}, "[7]": {"test_system": "Mycobacterium tuberculosis H37Rv cells", "experiment": "Minimum inhibitory concentration assay (microfluidic agarose channel chip)", "type": "cell-based"}, "[8]": {"settings": "compound at 1 mM, SDS-PAGE of eluate"}},
  "note": "Values joined by “and” are separate entries in the source; they are usually repeats but may differ in a detail not shown here. Equal values may be shown once. Read-outs that look alike come from different tables or passages of the source.",
  "data": [
    {"smiles": "CC(=O)Nc1ncnc2c1ncn2[C@@H]1O[C@H](CO)[C@@H](O)[C@H]1O", "note": "[N6-acetyl ado]", "values": [
      {"measurement": "Eluted protein amount relative to N6-methyl ado", "setting": "[1]", "value": 12, "unit": "%"},
      {"measurement": "Integrated band volume", "setting": "[1]", "value": "5,015"},
      {"measurement": "Ratio against N6-methyl ado", "setting": "[1]", "value": 0.12},
      {"measurement": "Inhibitory effect on AlaDH activity", "setting": "[2]", "value": "did not reveal any inhibitory effect"}
    ]},
    {"smiles": "CCCNc1ncnc2c1ncn2[C@@H]1O[C@H](CO)[C@@H](O)[C@H]1O", "note": "[N6-propyl adenosine]", "values": [
      {"measurement": "Eluted AlaDH compared to N6-methyl ado", "setting": "[1]", "value": 3.05, "unit": "fold"},
      {"measurement": "Integrated band volume", "setting": "[1]", "value": "126,378"},
      {"measurement": "Ratio against N6-methyl ado", "setting": "[1]", "value": 3.05},
      {"measurement": "Ki", "setting": "[2]", "value": "110 µM and 113 µM"},
      {"measurement": "melting point", "value": "162 to 165.4", "unit": "°C"}
    ]},
    {"smiles": "Cc1nc(N)c2ncn([C@@H]3O[C@H](CO)[C@@H](O)[C@H]3O)c2n1", "note": "[D28, C2-methyl adenosine]", "values": [
      {"measurement": "Elution of AlaDH from F3GA dye resin (displacement of the dye) in DLAC", "setting": "[1]", "value": "did not show displacement"},
      {"measurement": "Initial velocity (vi) of the AlaDH reaction with compound", "setting": "[3]", "value": "1.769 x10^-3 [NADH]OD340/min"},
      {"measurement": "Reduction of initial velocity (vi) of the AlaDH reaction", "setting": "[3]", "value": 4, "unit": "%"}
    ]},
    {"smiles": "NC(=O)C1=CN([C@@H]2O[C@H](COP(=O)(O)OP(=O)(O)OC[C@H]3O[C@@H](n4cnc5c(N)ncnc54)[C@H](O)[C@@H]3O)[C@@H](O)[C@H]2O)C=CC1", "note": "[NADH]", "values": [
      {"measurement": "Binding in DLAC assay (previous data)", "setting": "[4]", "value": "bound strongly"}
    ]},
    {"smiles": "Nc1ncnc2c1ncn2[C@@H]1O[C@H](COP(=O)(O)OP(=O)(O)OP(=O)(O)O)[C@@H](O)[C@H]1O", "note": "[ATP, reference compound]", "values": [
      {"measurement": "Elution of AlaDH from F3GA dye resin (displacement of the dye) in DLAC", "setting": "[1]; [8]", "value": "eluted the target AlaDH enzyme"},
      {"measurement": "Binding in DLAC assay (previous data)", "setting": "[4]", "value": "bound strongly"}
    ]},
    {"smiles": "CC(C)CNc1ncnc2c1ncn2[C@@H]1O[C@H](CO)[C@@H](O)[C@H]1O", "note": "[N6-isobutyl adenosine]", "values": [
      {"measurement": "Integrated band volume", "setting": "[1]", "value": "143,252"},
      {"measurement": "Ratio against N6-methyl ado", "setting": "[1]", "value": 3.45},
      {"measurement": "Eluted AlaDH compared to N6-methyl ado", "setting": "[1]; listed as N6-isobutyl ado", "value": "3.45 fold and ~ 3.5 fold"},
      {"measurement": "vi of wild-type AlaDH after adding compound", "setting": "[3]; […], without compound vi 1.922 x10^-3", "value": "0.734 x10^-3 [NADH]OD340/min"},
      {"measurement": "Ki", "setting": "[2]", "value": "80 µM and 79 µM"},
      {"measurement": "Inhibition of AldDH activity", "setting": "[5]", "value": "no inhibition"},
      {"measurement": "Inhibition of human malate DH 2 activity", "setting": "human malate DH 2", "value": "no noticeable inhibition"}
    ]},
    {"smiles": "CC(C)C(=O)Nc1ncnc2c1ncn2[C@@H]1O[C@H](CO)[C@@H](O)[C@H]1O", "note": "[N6-isobutyoyl adenosine]", "values": [
      {"measurement": "Eluted protein amount relative to N6-methyl ado", "setting": "[1]", "value": 70, "unit": "%"},
      {"measurement": "Integrated band volume", "setting": "[1]", "value": "29,087"},
      {"measurement": "Ratio against N6-methyl ado", "setting": "[1]", "value": 0.70},
      {"measurement": "Ki", "setting": "[2]", "value": 3710, "unit": "µM"}
    ]},
    {"smiles": "CNc1ncnc2c1ncn2[C@@H]1O[C@H](CO)[C@@H](O)[C@H]1O", "note": "[D30, N6-methyl adenosine]", "values": [
      {"measurement": "Integrated band volume", "setting": "[1]", "value": "41,418"},
      {"measurement": "Ratio against N6-methyl ado", "setting": "[1]", "value": 1},
      {"measurement": "Elution of AlaDH from F3GA dye resin (displacement of the dye) in DLAC", "setting": "[1]; [8]", "value": "displaced the F3GA dye from AlaDH"},
      {"measurement": "Reduction of initial velocity (vi) of the AlaDH reaction", "setting": "[3]; 1 mM inhibitor, 1 mM NAD, 17 mM L-alanine", "value": 33, "unit": "%"},
      {"measurement": "Initial velocity (vi) of the AlaDH reaction with compound", "setting": "[3]; no inhibition vi 1.842x10^-3, 1 mM inhibitor", "value": "1.231x10^-3 [NADH]OD340/min"},
      {"measurement": "Ki", "setting": "[2]", "value": "860 µM and 861 µM"},
      {"measurement": "Inhibition of AldDH activity", "setting": "[5]", "value": "none"},
      {"measurement": "Inhibition of human malate DH 2 activity", "setting": "human malate DH 2", "value": "no noticeable inhibition"},
      {"measurement": "Intracellular growth of Mtb in BMDMs", "setting": "[6]", "value": "significantly decreased"},
      {"measurement": "MIC", "setting": "[7]", "value": "~10", "unit": "µg/mL"}
    ]},
    {"smiles": "CCNc1ncnc2c1ncn2[C@@H]1O[C@H](CO)[C@@H](O)[C@H]1O", "note": "[N6-ethyl adenosine]", "values": [
      {"measurement": "Eluted AlaDH compared to N6-methyl ado", "setting": "[1]", "value": 2.12, "unit": "fold"},
      {"measurement": "Integrated band volume", "setting": "[1]", "value": "87,674"},
      {"measurement": "Ratio against N6-methyl ado", "setting": "[1]", "value": 2.12},
      {"measurement": "Ki", "setting": "[2]", "value": "520 µM and 521 µM"},
      {"measurement": "melting point", "value": "197.1 to 198.4", "unit": "°C"}
    ]}
  ]
}
